Experimental data as given in patent US20240132515A1, “TOXIN MOLECULE SUITABLE FOR ANTIBODY-DRUG CONJUGATE” (MINGHUI PHARMACEUTICAL (HANGZHOU) LIMITED, priority 2021, published 2024).

The molecules below were run on KPL-4 Cells (assay: Cell Proliferation Inhibition Test (CellTiter-Glo, 72 h)). Conditions: KPL4, 72 h incubation, CellTiter-Glo luminescence.
Assay type: cell-based
Description: Cell Proliferation Inhibition Test KPL-4 Cells in the logarithmic phase of growth were collected and re-suspended with fresh RPMI1640 complete cell culture medium, and adjusted to 2×10^4 cells/mL after cell counting. Cells were seeded into 96-well cell culture plates at 100 μL/well, and placed in a CO2 incubator (37° C., 5% CO2) overnight. In the next day, one of the cell culture plates were taken out, balanced to room temperature, and CellTiter-Glo reagent (Promega, USA), which was pre-balanced to room temperature and evenly mixed, was added into the plate at 100 μl. The plate was kept in dark for 30 min, and then luminescence value was read with a microplate reader (denoted as G0 value). The other cell culture plates were taken out and added with different concentrations of test compounds or DMSO (final concentration 0.5%) in corresponding wells. After incubated for 72 h in a CO2 incubator, the cell culture plates were balanced to room temperature and tested for cell viabilities using CellTiter-Glo reagent as described above (denoted as G3 value).
The cell proliferation rates were calculated using the following formula: Cell proliferation rate (%)=(mean of G3compound−mean of G0)/(mean of G3DMSO−mean of G0)×100.

| Structure (SMILES) | GI50 |
| --- | --- |
| CC[C@@]1(O)C(=O)OCc2c1cc1n(c2=S)Cc2c-1nc1cc(F)c(C)c3c1c2[C@@H](NC(=O)C(C)(C)O)CC3 [Example 9] | 12.1 nM |
| CC[C@@]1(O)C(=O)OCc2c1cc1n(c2=S)Cc2c-1nc1cc(F)c(C)c3c1c2[C@@H](NC(=O)C(O)CC1CC1)CC3 (stereo partly shown) [Example 19] | 2.9 nM |
| CC[C@@]1(O)C(=O)OCc2c1cc1n(c2=S)Cc2c-1nc1cc(F)c(C)c3c1c2[C@H](NC(=O)C1(O)CC1)CC3 [Example 18] | 3.89 nM |
| CC[C@@]1(O)C(=O)OCc2c1cc1n(c2=S)Cc2c-1nc1cc(F)c(C)c3c1c2[C@H](NC(=O)C(O)C1CC1)CC3 (stereo partly shown) [Example 21] | 34.7 nM |
| CC[C@@]1(O)C(=O)OCc2c1cc1n(c2=S)Cc2c-1nc1cc(F)c(C)c3c1c2[C@H](NC(C)=O)CC3 [Example 4] | 1.55 nM |
| CC[C@@]1(O)C(=O)OCc2c1cc1n(c2=S)Cc2c-1nc1cc(F)c(C)c3c1c2[C@H](NC(=O)C(O)CC1CC1)CC3 (stereo partly shown) [Example 20] | 4.79 nM |
| CC[C@@]1(O)C(=O)OCc2c1cc1n(c2=S)Cc2c-1nc1cc(F)c(C)c3c1c2[C@@H](NC(C)=O)CC3 [Example 3] | 2.59 nM |
| CC[C@@]1(O)C(=O)OCc2c1cc1n(c2=S)Cc2c-1nc1cc(F)c(C)c3c1c2[C@@H](NC(=O)CN)CC3 [Example 13] | 7.54 nM |
| CC[C@@]1(O)C(=O)OCc2c1cc1n(c2=S)Cc2c-1nc1cc(F)c(C)c3c1c2[C@H](NC(=O)C(O)c1ccccc1)CC3 (stereo partly shown) [Example 6] | 5.31 nM |
| CC[C@@]1(O)C(=O)OCc2c1cc1n(c2=O)Cc2c-1nc1cc(F)c(C)c3c1c2[C@@H](NC(=O)CO)CC3 [DXd, reference compound] | 72 nM |
| CC[C@@]1(O)C(=O)OCc2c1cc1n(c2=S)Cc2c-1nc1cc(F)c(C)c3c1c2[C@H](NC(=O)C(O)Cc1ccccc1)CC3 (stereo partly shown) [Example 8] | 4.95 nM |
| CC[C@@]1(O)C(=O)OCc2c1cc1n(c2=S)Cc2c-1nc1cc(F)c(C)c3c1c2[C@H](NC(=O)CN)CC3 [Example 14] | 6.14 nM |
| CC[C@@]1(O)C(=O)OCc2c1cc1n(c2=S)Cc2c-1nc1cc(F)c(C)c3c1c2[C@@H](NC(=O)C(O)Cc1ccccc1)CC3 (stereo partly shown) [Example 7] | 5.76 nM |
| CC[C@@]1(O)C(=O)OCc2c1cc1n(c2=S)Cc2c-1nc1cc(F)c(C)c3c1c2[C@@H](NC(=O)C1(O)CC1)CC3 [Example 17] | 1.83 nM |
| CC[C@@]1(O)C(=O)OCc2c1cc1n(c2=S)Cc2c-1nc1cc(F)c(C)c3c1c2[C@H](NC(=O)C(C)(C)O)CC3 [Example 10] | 3.54 nM |
| CC[C@@]1(O)C(=O)OCc2c1cc1n(c2=S)Cc2c-1nc1cc(F)c(C)c3c1c2[C@@H](NC(=O)C(O)c1ccccc1)CC3 (stereo partly shown) [Example 5] | 1.79 nM |
